Results as given in the SangsterLogP compilation.

Experiments:
[1] = method code SF-HPLC, from Hairsine, P. (1997). Direct measurement of partition coefficient by shake flask technique and gradient elution HPLC. Lab. Practice, 38(11)73-75.
[2] = method code SF-GLC, from Jha, T.; Debnath, A.; Mazumdar, A.; Sengupta, C.; De, A. (1986). Hansch analysis of antineoplastic agents, 5-N-substituted-2-p-substituted benzenesulfonyl-L-glutamines. Ind. J. Chem., Sect. B, …
[3] = not given; remark: listed apart in the source
[4] = not given; remark: listed apart in the source
[5] = method code SF, from DOI: 10.1016/s0006-3495(89)82875-9, PMID: 2470429; conditions: pH 7.3
[6] = not given; remark: listed apart in the source
[7] = method code SF-RC, from DOI: 10.1021/acs.jmedchem.6b00849, PMID: 27690428; conditions: pH 7.4
[8] = method code SF-AS, from DOI: 10.1081/jlc-100100410; conditions: pH 4.0
[9] = method code SF-AS, from DOI: 10.1016/s0022-3565(25)32601-7, PMID: 7194909
[10] = method code SF-AS, from PMID: 17401091; conditions: pH 7.4
[11] = not given; remark: listed apart in the source
[12] = not given; remark: listed apart in the source
[13] = method code SF-AS, from DOI: 10.1007/bf02273190
[14] = method code SF-FL, from DOI: 10.1002/jps.2600810104, PMID: 1352350
[15] = method code SF-AS/IM, from DOI: 10.1002/jps.2600661205, PMID: 925928
[16] = method code SF-HPLC, from DOI: 10.1023/a:1013643013244, PMID: 11837695; conditions: pH 6.4
[17] = method code SF, from DOI: 10.1016/j.ijpharm.2011.07.043, PMID: 21839822; conditions: pH 7.4
[18] = method code SF, from DOI: 10.1021/jm049495j.s001, PMID: 15771458; conditions: pH 12.0
[19] = not given; remark: listed apart in the source
[20] = method code SF-AS, from Galdino, S.; Pitta, I.; Luc-Duc, C. (1986). 5-Benzylidene pyrrolones, furanones and thiopenones. II. Quantitative structure-antifungal correlation. Farmaco [Sci], 41(1)59-68.
[21] = not given; remark: listed apart in the source
[22] = method code SF, from DOI: 10.1016/j.ejmech.2012.08.015, PMID: 22960698
[23] = not given; remark: listed apart in the source
[24] = pH 7.4
[25] = not given; remark: listed apart in the source
[26] = not given; remark: listed apart in the source
[27] = method code SF-HPLC, from DOI: 10.1023/a:1007514121527, PMID: 10714601; conditions: pH 7.4
[28] = method code SF-AS, from DOI: 10.1007/bf00500291, PMID: 4270072; conditions: pH 7.4
[29] = method code SF, from DOI: 10.1016/j.ejps.2016.06.024, PMID: 27373604; conditions: pH 7.4
[30] = method code SF, from DOI: 10.1016/s0223-5234(03)00044-8, PMID: 12750026; conditions: pH 7.4
[31] = not given; remark: listed apart in the source
[32] = method code SF-ILT, from DOI: 10.1002/ardp.19763091008, PMID: 1008678
[33] = method code SF-AS, from DOI: 10.1016/j.ejmech.2010.07.027, PMID: 20705371
[34] = method code SF-AS, from DOI: 10.1016/s0021-9673(00)91570-x; conditions: pH 3.4
[35] = method code SF, from Tomlin, C. (2000). The Pesticide Manual (12th Edition) British Crop Protection Council, Bracknell.
[36] = method code SF-NMR, from DOI: 10.1016/j.jpba.2012.12.010, PMID: 23298914; conditions: pH 7.6
[37] = method code SF-AS, from DOI: 10.1021/js960093b, PMID: 8897274; conditions: pH 7.4
[38] = method code SF-AS, from DOI: 10.1021/jm00254a028, PMID: 4845386
[39] = method code SF-AS, from PMID: 3449083
[40] = method code SF-FL, from DOI: 10.1248/cpb.27.638, PMID: 554741
[41] = method code SF-HPLC, from DOI: 10.1021/jm300631e, PMID: 22734650; conditions: pH 7.4
[42] = method code SF-AS, from Thiel, W. (1998). Structure and physicochemical properties of retigabine. Pharmazie, 53(12)865-868.; conditions: pH 7.4
[43] = method code SF-HPLC, from DOI: 10.1016/s0021-9673(99)01336-9, PMID: 10757301
[44] = not given; remark: listed apart in the source
[45] = not given; remark: listed apart in the source

O=C(CCNNC(=O)c1ccncc1)NCc1ccccc1
logP [1]: 0.83

Cc1ccc2oc(-c3ccccc3C(=O)O)c(Br)c2c1
logP: 5.19

CCCNC(=O)CCC(NS(=O)(=O)c1ccc(C)cc1)C(=O)O (stereo unspecified)
logP [2]: 0.13

CCN1C=CC(=C2C(=O)c3ccc(Cl)cc3C2=O)C=C1
logP [3]: 2.76

CN(C)Cc1ccccc1Sc1ccc(I)cc1CO
logP [4]: 2.67

COC(=O)C1=C(C)NC(C)=C([N+](=O)[O-])C1c1ccccc1C(F)(F)F (stereo unspecified)
logD [5]: 2.46

Cc1nc(N)nc(N)c1C12CC3CC(CC(C3)C1)C2
logP [6]: 2.64

N#Cc1ccc(N(Cc2ccc(I)cc2)n2cnnc2)cc1
logD [7]: 2.48

CC(C)Oc1ccc(C(=O)NS(=O)(=O)c2ccc(N)cc2)cc1
logD [8]: 1.21

OC1(c2ccc(Cl)cc2)c2ccccc2C2=NCCN21 (stereo unspecified)
logP [9]: 1.81

CN(C)c1ncc(C=Cc2nc3ccc(OCCF)cc3o2)s1
logD [10]: 1.75

c1cc2ccc1CCc1ccc(cc1)CC2
logP [11]: 4.61

CCCCCCNC(=O)CNC(=O)OCc1ccccc1
logP [12]: 3.7

CCCCCCC(=O)N(C)c1ccc(S(=O)(=O)N(C)C)cc1
logP [13]: 2.61

CN1CCN=C(c2ccccc2)c2cc(Cl)ccc21
logP [14]: 3.3

CC1(C)S[C@@H]2[C@H](NC(=O)COc3ccccc3)C(=O)N2[C@H]1C(=O)O
logP [15]: 1.95

CCCN1C(=O)CCC(N2C(=O)c3ccccc3C2=O)C1=O (stereo unspecified)
logD [16]: 2.11

CCCCCCCCNC(=O)c1ccccc1O
logD [17]: 3.7

c1ccc2c(c1)CCn1ccnc1C21CCNCC1
logD [18]: 1.18

CCOP(=S)(NC(C)C)Oc1ccccc1C(=O)OC(C)C (stereo unspecified)
logP [19]: 3.7

CCOC(=O)C1=C(C)O/C(=C\c2ccc(OC)cc2)C1=O
logP [20]: 2.96

COc1ccc(C(=O)NNC(=O)c2ccc(OC)cc2)cc1
logP [21]: 1.55

O=C(CC1OC(=O)c2ccccc21)c1ccc(Cl)c(Cl)c1 (stereo unspecified)
logP [22]: 4.24

COc1ccc(Sc2ccc(I)cc2N)c(CN(C)C)c1
logP [23]: 3.34

CCCCSCS(=O)CC(CO)NC(=O)C=Cc1c(C)[nH]c(=O)[nH]c1=O (stereo unspecified)
logD [24]: 0.14

Oc1ccc(C23CC4CC(CC(C4)C2)C3)cc1
logP [25]: 5.46

CCCCCCCC(=O)N[C@@H]1C(=O)N2[C@@H]1SC(C)(C)[C@@H]2C(=O)O
logP [26]: 3.32

COc1cc2oc(=O)cc(CC(NC(C)=O)C(N)=O)c2cc1OC (stereo unspecified)
logD [27]: -0.13

CN1C(=O)CN=C(C2=CCCCC2)c2cc(Cl)ccc21
logD [28]: 2.76

NC(=O)C1c2ccccc2CCc2ccccc21
logD [29]: 1.67

CNC(=O)Oc1ccc2c(c1)C1(C)CCN(C)C1N2C (stereo unspecified)
logD [30]: 0.97

O=C(O)Cc1ccc2c(c1O)C(=O)c1c(O)cccc1C2
logP [31]: 3.1

CCNC(=O)C1C2C=CC(C2)C1C(=O)N(CC)CC (stereo unspecified)
logP [32]: 0.99

CC(C)(C)c1ccc(O)c(CN2CCOCC2)c1
logP [33]: 1.96

COc1cc(CC(=O)O)ccc1OCC1CCCCC1
logD [34]: 3.35

COCC(=O)N(c1c(C)cccc1C)C(C)C(=O)OC (racemic)
logP [35]: 1.75

COC(=O)C(N)Cc1cc(I)c(Oc2ccc(O)c(I)c2)c(I)c1 (stereo unspecified)
logD [36]: 2.6

N#CN=C1NC(=O)C(c2ccccc2)(c2ccccc2)N1
logD [37]: 1.16

NC(=O)OC1c2ccccc2C2CCCCC2C1OC(N)=O (stereo unspecified)
logP [38]: 2.17

CN1C=CCC(C(=O)OC2CCC(NC(=O)N(CCCl)N=O)CC2)=C1 (stereo unspecified)
logP [39]: 2.53

c1ccc(Nc2cccc3ccccc23)cc1
logP [40]: 4.2

C=CCC1(c2cccc(C3(C(F)(F)F)N=N3)c2)C(=O)NC(=O)N(C)C1=O (stereo unspecified)
logD [41]: 3.79

CCOC(=O)Nc1ccc(NCc2ccc(F)cc2)cc1N
logD [42]: 2.17

CO/N=C(\C(=O)N[C@@H]1C(=O)N2C(C(=O)O)=C(COC(N)=O)CS[C@H]12)c1ccco1
logP [43]: -0.17

CCc1cccc(C)c1N(C(=O)CCl)C(C)COC (stereo unspecified)
logP [44]: 3.09

O=C(O)Cc1ccc2c(c1)C(=O)c1ccccc1CS2
logP [45]: 2.97
